Data published in article PMC7504216 (Molecules, 2020).
Read-outs that look alike come from different tables or passages of the source.

Legend:
AChE = conditions: cited from earlier work
BChE = conditions: cited from earlier work; for BChE inhibition: 25 μg/mL (sphondin 115.7 μM, pimpinellin 101.5 μM), from Heracleum platytaenium
MAO-B = system: MAO-B; design: method as in PMID 28634060; conditions: cited from earlier work
recombinant human MAO-A = target: T1, recombinant human MAO-A (Homo sapiens, UniProt P21397); test: biochemical; format: biochemical; conditions: for remaining activity at 10 µM: read-out: Residual Activity at 10 µM (%) MAO-A
T1 construct: purchased Sigma-Aldrich
T1 sequence (P21397 1-527): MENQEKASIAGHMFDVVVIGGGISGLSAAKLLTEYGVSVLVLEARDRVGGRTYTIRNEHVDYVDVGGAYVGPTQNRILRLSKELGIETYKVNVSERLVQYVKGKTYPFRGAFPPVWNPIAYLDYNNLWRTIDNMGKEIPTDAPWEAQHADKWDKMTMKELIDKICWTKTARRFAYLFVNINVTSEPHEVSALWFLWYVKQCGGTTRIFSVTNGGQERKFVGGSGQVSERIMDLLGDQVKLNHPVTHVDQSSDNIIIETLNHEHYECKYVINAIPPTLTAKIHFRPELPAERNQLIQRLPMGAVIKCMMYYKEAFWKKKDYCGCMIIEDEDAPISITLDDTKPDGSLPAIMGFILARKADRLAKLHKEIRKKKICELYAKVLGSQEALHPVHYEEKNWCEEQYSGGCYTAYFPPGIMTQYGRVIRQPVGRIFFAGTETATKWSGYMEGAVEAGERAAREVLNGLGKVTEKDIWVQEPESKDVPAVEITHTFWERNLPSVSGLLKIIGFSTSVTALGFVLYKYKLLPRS

recombinant human MAO-B [1] = target: T2, recombinant human MAO-B (Homo sapiens, UniProt P27338); test: biochemical; format: biochemical; conditions: for remaining activity at 10 µM: read-out: Residual Activity at 10 µM (%) MAO-B
T2 construct: purchased Sigma-Aldrich
T2 sequence (P27338 1-520): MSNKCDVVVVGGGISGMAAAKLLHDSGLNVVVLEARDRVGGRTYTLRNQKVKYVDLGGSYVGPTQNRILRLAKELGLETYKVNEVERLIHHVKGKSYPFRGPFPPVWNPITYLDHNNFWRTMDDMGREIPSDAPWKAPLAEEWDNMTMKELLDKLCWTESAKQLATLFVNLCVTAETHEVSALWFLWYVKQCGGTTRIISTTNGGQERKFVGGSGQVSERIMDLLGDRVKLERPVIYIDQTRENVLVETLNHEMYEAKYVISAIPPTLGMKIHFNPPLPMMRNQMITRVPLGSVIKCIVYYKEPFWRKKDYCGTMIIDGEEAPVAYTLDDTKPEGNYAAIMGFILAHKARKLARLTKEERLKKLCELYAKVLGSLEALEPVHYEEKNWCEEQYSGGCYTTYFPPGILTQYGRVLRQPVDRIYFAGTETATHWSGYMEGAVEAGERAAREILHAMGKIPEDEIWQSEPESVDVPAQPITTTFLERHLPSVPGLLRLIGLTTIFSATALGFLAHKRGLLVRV

[2] = target: T3, AChE from Electrophorus electricus (Electrophorus electricus, UniProt O42275); test: AChE inhibition assay (Ellman, ATCI); format: biochemical; conditions: for remaining activity at 10 µM: read-out: Residual Activity at 10 µM (%) AChE; for Residual Activity at 10 µM (%) AChE: inhibitor 10 µM, mean ± SE, triplicate
T3 construct: purchased Sigma-Aldrich
T3 sequence (O42275 24-633): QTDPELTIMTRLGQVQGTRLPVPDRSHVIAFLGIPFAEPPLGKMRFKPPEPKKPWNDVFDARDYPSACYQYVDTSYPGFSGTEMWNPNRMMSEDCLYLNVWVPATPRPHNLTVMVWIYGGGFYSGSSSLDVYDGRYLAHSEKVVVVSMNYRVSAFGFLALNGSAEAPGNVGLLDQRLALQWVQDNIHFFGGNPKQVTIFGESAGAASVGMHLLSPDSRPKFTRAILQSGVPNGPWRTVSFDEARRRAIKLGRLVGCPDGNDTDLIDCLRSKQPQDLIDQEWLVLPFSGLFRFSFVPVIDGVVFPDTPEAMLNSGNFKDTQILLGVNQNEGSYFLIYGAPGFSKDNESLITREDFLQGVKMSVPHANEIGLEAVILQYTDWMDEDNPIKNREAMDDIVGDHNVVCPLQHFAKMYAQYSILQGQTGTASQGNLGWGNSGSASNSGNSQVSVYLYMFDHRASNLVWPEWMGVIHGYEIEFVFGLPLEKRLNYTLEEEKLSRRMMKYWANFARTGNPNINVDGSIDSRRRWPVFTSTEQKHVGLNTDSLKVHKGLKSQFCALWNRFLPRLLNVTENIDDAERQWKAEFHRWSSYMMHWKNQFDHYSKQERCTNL

BChE from equine serum [3] = target: T4, BChE from equine serum (Equus caballus, UniProt P81908); test: BChE inhibition assay (Ellman, BTCI) and kinetics; format: biochemical; conditions: for remaining activity at 10 µM: read-out: Residual Activity at 10 µM (%) BChE; for Residual Activity at 10 µM (%) BChE: inhibitor 10 µM, mean ± SE, triplicate
T4 construct: BChE from equine serum; purchased Sigma-Aldrich; host or cells: equine serum
T4 sequence (P81908 whole entry): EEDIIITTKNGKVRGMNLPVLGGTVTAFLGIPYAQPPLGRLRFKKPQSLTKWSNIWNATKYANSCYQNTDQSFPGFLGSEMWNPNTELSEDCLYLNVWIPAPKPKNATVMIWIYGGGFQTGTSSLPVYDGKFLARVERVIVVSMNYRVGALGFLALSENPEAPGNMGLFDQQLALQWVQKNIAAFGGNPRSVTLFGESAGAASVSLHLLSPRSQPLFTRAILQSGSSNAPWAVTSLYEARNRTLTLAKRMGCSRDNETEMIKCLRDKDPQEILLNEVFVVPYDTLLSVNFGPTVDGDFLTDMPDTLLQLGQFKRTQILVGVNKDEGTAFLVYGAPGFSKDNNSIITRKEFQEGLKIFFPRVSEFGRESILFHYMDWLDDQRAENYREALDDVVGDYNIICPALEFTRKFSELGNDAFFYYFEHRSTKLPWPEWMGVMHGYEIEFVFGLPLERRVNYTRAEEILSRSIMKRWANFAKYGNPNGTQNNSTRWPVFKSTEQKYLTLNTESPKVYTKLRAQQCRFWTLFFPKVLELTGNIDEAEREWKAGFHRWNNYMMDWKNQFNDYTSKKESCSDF

recombinant human MAO-B [4] = target: T2, recombinant human MAO-B; test: Reversibility of MAO-B inhibition by dialysis; format: biochemical
BChE from equine serum [5] = target: T4, BChE from equine serum; test: Reversibility of BChE inhibition by dialysis; format: biochemical
BChE from equine serum [6] = target: T4, BChE from equine serum; test: Reversibility of BChE inhibition by dilution method; format: biochemical
[7] = inhibitor 10 µM, mean ± SE, triplicate

tannic acid
IC50 (AChE): 0.087 µM

COc1cc2ccc(=O)oc2cc1O [scopoletin]
IC50 (BChE): 9.11 µM

CCC(C)C(=O)c1c(O)c2c(c3c(-c4ccccc4)cc(=O)oc13)OC(C)(CCC=C(C)C)C=C2 (stereo not shown) [mesuagenin B]
IC50 (AChE; from Mesua elegans): 0.7 µM

COc1ccc(-c2cc(=O)c3c(O)cc(O)cc3o2)cc1 [acacetin]
IC50 (MAO-B): 0.17 µM

CC(=O)O[C@@H]1CCC(C)(C)c2ccc3c(c21)C(=O)C(=O)C1=C3OC[C@@H]1C [(1R,15R)-1-acetoxycryptotanshinone]
IC50 (BChE): 2.4 µM

CC1(C)[C@@H](O)CC[C@]2(C)[C@H]3C(=O)C=C4[C@@H]5C[C@@](C)(C(=O)O)CC[C@]5(C)CC[C@@]4(C)[C@]3(C)CC[C@@H]12 [Glycyrrhetinic acid, glycyrrhetinic acid]
IC50 (recombinant human MAO-A): > 40 µM
remaining activity at 10 µM (recombinant human MAO-A; [7]): 96.3 ± 2.64%
IC50 (recombinant human MAO-B [1]): > 40 µM
remaining activity at 10 µM (recombinant human MAO-B [1]; [7]): 84 ± 2.16%
remaining activity at 10 µM [2]: 97.3 ± 1.61%
remaining activity at 10 µM (BChE from equine serum [3]): 95 ± 4.12%

COc1cc2ccc(=O)oc2c2ccoc12 [sphondin]
BChE inhibition (BChE): 63.69%

CC1(C)[C@@H](O[C@H]2O[C@H](C(=O)O)[C@@H](O)[C@H](O)[C@H]2O[C@@H]2O[C@H](C(=O)O)[C@@H](O)[C@H](O)[C@H]2O)CC[C@]2(C)[C@H]3C(=O)C=C4[C@@H]5C[C@@](C)(C(=O)O)CC[C@]5(C)CC[C@@]4(C)[C@]3(C)CC[C@@H]12 [Glycyrrhizin, glycyrrhizin]
IC50 (recombinant human MAO-A): > 40 µM
remaining activity at 10 µM (recombinant human MAO-A; [7]): 95.8 ± 3.3%
IC50 (recombinant human MAO-B [1]): > 40 µM
remaining activity at 10 µM (recombinant human MAO-B [1]; [7]): 93.1 ± 4.32%
remaining activity at 10 µM [2]: 97.7 ± 2.14%
remaining activity at 10 µM (BChE from equine serum [3]): 82.3 ± 7.95%

O=C1C[C@@H](c2ccc(O)cc2)Oc2cc(O)ccc21 [LG, Liquiritigenin]
IC50 (recombinant human MAO-A): 0.27 ± 0.041 µM
remaining activity at 10 µM (recombinant human MAO-A): 0.46 ± 1.6%
mode of MAO-B inhibition (recombinant human MAO-B [1]; Lineweaver-Burk plots): reversible competitive inhibitor
remaining activity at 10 µM (recombinant human MAO-B [1]): 0%
IC50 [2]: > 40 µM
remaining activity at 10 µM [2]: 95.3 ± 3.59%
IC50 (BChE from equine serum [3]): > 40 µM
remaining activity at 10 µM (BChE from equine serum [3]): 82.5 ± 0.26%
reversibility of MAO-B inhibition (recombinant human MAO-B [4]): reversibly inhibited

isoliquiritin apioside
Residual Activity at 10 µM (%) MAO-A (recombinant human MAO-A; [7]): 86.6 ± 3.27%
Residual Activity at 10 µM (%) MAO-B (recombinant human MAO-B [1]; [7]): 80.3 ± 5.57%
Residual Activity at 10 µM (%) AChE [2]: 93.5 ± 3.07%
Residual Activity at 10 µM (%) BChE (BChE from equine serum [3]): 95.6 ± 0.88%

sagachromanol I
IC50 (BChE): 10.8 µM

liquiritin apioside
Residual Activity at 10 µM (%) MAO-A (recombinant human MAO-A; [7]): 86.9 ± 2.41%
Residual Activity at 10 µM (%) MAO-B (recombinant human MAO-B [1]; [7]): 94.8 ± 0.57%
Residual Activity at 10 µM (%) AChE [2]: 63.5 ± 2.56%
Residual Activity at 10 µM (%) BChE (BChE from equine serum [3]): 97.6 ± 0.93%

O=C(/C=C/c1ccc(O[C@@H]2O[C@H](CO)[C@@H](O)[C@H](O)[C@H]2O)cc1)c1ccc(O)cc1O [Isoliquiritin, isoliquiritin]
IC50 (recombinant human MAO-A): > 40 µM
remaining activity at 10 µM (recombinant human MAO-A): 81.8 ± 1.61%
IC50 (recombinant human MAO-B [1]): > 40 µM
remaining activity at 10 µM (recombinant human MAO-B [1]): 75.4 ± 2.27%
IC50 [2]: > 40 µM
remaining activity at 10 µM [2]: 69.9 ± 2.2%
IC50 (BChE from equine serum [3]): > 40 µM
remaining activity at 10 µM (BChE from equine serum [3]): 91.9 ± 7.16%

hyuganin C
IC50 (BChE): 38.9 µM

O=C1C[C@@H](c2ccc(O[C@@H]3O[C@H](CO)[C@@H](O)[C@H](O)[C@H]3O)cc2)Oc2cc(O)ccc21 [Liquiritin, liquiritin]
IC50 (recombinant human MAO-A): > 40 µM
remaining activity at 10 µM (recombinant human MAO-A): 93.5%
IC50 (recombinant human MAO-B [1]): > 40 µM
remaining activity at 10 µM (recombinant human MAO-B [1]): 90.2 ± 0.56%
IC50 [2]: > 40 µM
remaining activity at 10 µM [2]: 93.5 ± 5.12%
IC50 (BChE from equine serum [3]): > 40 µM
remaining activity at 10 µM (BChE from equine serum [3]): 95.5 ± 4.67%

CC(C)=CCc1c(O)ccc2ccc(=O)oc12 [osthenol]
IC50 (AChE; from Angelica pubescens): 25.3 µM

COc1cc2c(cc1O)C[C@H]1c3c(cc(O)c(OC)c3-2)CCN1C [boldine]
IC50 (BChE): 321 µM

Cc1cc2c(cc(=O)c1O)[C@@]1(CO)CCCC(C)(C)[C@@H]1CC2 [isograndifoliol]
IC50 (BChE): 0.9 µM

CC(C)=CCC[C@]1(C)[C@@H](CC=C(C)C)C[C@@]2(CC=C(C)C)C(=O)[C@]1(C(=O)C(C)C)C(=O)C(CC=C(C)C)=C2O [hyperforin]
IC50 (BChE): 142 µM

COc1ccc([C@@H]2CC(=O)c3c(O)cc(O[C@@H]4O[C@H](CO[C@@H]5O[C@@H](C)[C@H](O)[C@@H](O)[C@H]5O)[C@@H](O)[C@H](O)[C@H]4O)cc3O2)cc1O [hesperidin]
IC50 (AChE): 0.00345 µM

cremaphenanthrene F
IC50 (BChE): 14.6 µM

COc1c(OC)c2occc2c2oc(=O)ccc12 [pimpinellin]
BChE inhibition (BChE): 78.02%

COc1c2occc2cc2ccc(=O)oc12 [xanthotoxin]
IC50 (AChE; from Ferula lutea): 0.76 µM

COc1c(CC=C(C)C)c(O)cc2oc(=O)c3c4ccc(O)cc4oc3c12 [GC, glycyrol]
IC50 (recombinant human MAO-A): > 40 µM
remaining activity at 10 µM (recombinant human MAO-A): 70.5 ± 1.61%
IC50 (recombinant human MAO-B [1]): 29.5 ± 0.67 µM
remaining activity at 10 µM (recombinant human MAO-B [1]): 74.2 ± 3.46%
IC50 [2]: 14.8 ± 0.19 µM
remaining activity at 10 µM [2]: 46.1 ± 4.4%
IC50 (BChE from equine serum [3]): 7.22 ± 0.37 µM
Ki (BChE from equine serum [3]): 4.47 µM
selectivity index (SI) for BChE with respect to AChE (BChE from equine serum [3]): 2.0
mode of BChE inhibition (BChE from equine serum [3]; Lineweaver-Burk plots): reversible, noncompetitive inhibitor
remaining activity at 10 µM (BChE from equine serum [3]): 44.6 ± 5.36%
Residual BChE activity, undialyzed (AU) (BChE from equine serum [5]; 2 × IC50 (GC […]; tacrine 0.03 µM), 30 min preincubation): 34.6%
Residual BChE activity, dialyzed (AD) (BChE from equine serum [5]; 2 × IC50 (GC […]; tacrine 0.03 µM), 6 h dialysis): 58.4%
reversibility of BChE inhibition (BChE from equine serum [5]; dialysis and dilution methods): reversible inhibitor
residual BChE activity, preincubated at 50 × IC50 then diluted to 1 × IC50 (BChE from equine serum [6]; 15 min preincubation, after dilution): 40.1%
residual BChE activity, control at 1 × IC50 (before dilution) (BChE from equine serum [6]; GC at 1 × IC50): 51.1%
residual BChE activity at 50 × IC50 (BChE from equine serum [6]; GC at 50 × IC50): 10.3%

COc1ccc(CCCc2ccc(O)cc2)c(O)c1 [broussonin A]
IC50 (BChE): 7.5 µM
